The values below come from patent US12370143B2, “Compound or salt thereof and lipid particles” (FUJIFILM Corporation, priority 2018, dated 2025).

Series [1] is described as follows: Particle size of nucleic acid lipid particles (Luc2-siRNA). The format is physicochemical. The settings on record: compound/DSPC/cholesterol/DMG-PEG2000 50/10/38.5/1.5. The procedure: By using the dispersion liquid of lipid particles as it was, the particle size of the lipid particles was measured using a zeta potential/particle size measurement system ELS-Z2 (Otsuka Electronics Co., Ltd.).
(§1) The compounds described in Table 2, L-α-distearoylphosphatidylcholine (trade name: COATSOME® MC-8080; NOF corporation), cholesterol (trade name: Choesterol HP; NIPPON FINE CHEMICAL CO., LTD.), and 1,2-dimyristoyl-rac-glycero-3-(methylpolyoxyethylene 2000) (hereinafter, called DMG-PEG2000) (trade name: SUNBRIGHT® GM-020; NOF corporation) were dissolved in ethanol at a molar ratio of 50/10/38.5/1.5 such that the total lipid concentration became 20 mmol/L, thereby obtaining an oil phase.
(§2) An aqueous nucleic acid solution obtained by dissolving 5 mg of Luc2-siRNA having the sequence described in Biomacromolecules (2013) 14, p. 3905 in 1 mL of sterile water was diluted with 10 mmol/L acetate buffer having a pH 4 such that the nucleic acid concentration became 19.7 μmol/L, thereby obtaining a water phase. Then, the water phase and the oil phase were mixed together by a micromixer (see JP5288254B) using a syringe pump such that the volume ratio of water phase:oil phase became 3:1 (final ratio of siRNA/lipid=339 (mol/mol)), and the mixed solution was diluted 2× with PBS, thereby obtaining a dispersion liquid of nucleic acid lipid particles. The dispersion liquid was dialyzed (Slide-A-Lyzer G2, MWCO: 10 kD, Thermo Fisher Scientific) using a phosphate buffered saline such that ethanol was removed, thereby obtaining nucleic acid lipid particles.
The particle size of the nucleic acid lipid particles was measured by the same method as that in <Preparation of lipid particles>.

Series [2] in a line: Encapsulation rate of siRNA in nucleic acid lipid particles (Luc2-siRNA). The format is physicochemical. As to conditions: compound/DSPC/cholesterol/DMG-PEG2000 50/10/38.5/1.5. The procedure:
as §1, §2
A 3 mol/L aqueous sodium acetate solution (30 μL) and 9 μL of glycogen were added to 60 μL of the lipid particles retaining nucleic acids, and then 1.5 mL of ethanol was added thereto such that only the nucleic acids were precipitated while the lipid was dissolved. Then, the supernatant was removed by centrifugation. After the precipitates were air-dried for 15 minutes or longer, water was added thereto such that the precipitates were redissolved, and the concentration thereof was measured using Nanodrop NF1000 (Thermo Fisher Scientific), thereby quantifying the total nucleic acid concentration.
The nucleic acid concentration was quantified using a Quant-iT RiboGreen RNA Assay Kit (Thermo Fisher Scientific) according to the protocol. First, a 20×TE buffer included in the above kit was diluted with water, thereby obtaining a 1×TE buffer. TE represents Tris/EDTA (ethylenediaminetetraacetic acid). In order to quantify only the nucleic acid in the outer water phase, the dispersion liquid of lipid particles retaining nucleic acids was diluted 10,000× with the 1×TE buffer.
The 10,000× diluted dispersion liquid of lipid particles (100 μL) was put in a 96-well plate, then 100 μL of a RiboGreen reagent (reagent included in the Quanti-iT Ribogreen RNA Assay Kit described above) diluted 2000× with the 1×TE buffer was added to a sample, and fluorescence (excitation wavelength: 485 nm, fluorescence wavelength: 535 nm) was measured using a plate reader Infinit EF200 (TECAN), thereby quantifying the nucleic acid concentration in the outer water phase.
By using the total nucleic acid concentration obtained through the above steps and the quantified nucleic acid concentration in the outer water phase, the nucleic acid encapsulation rate of the nucleic acid lipid particles was calculated according to the following Equation. Nucleic acid encapsulation rate (%)=(total nucleic acid concentration−nucleic acid concentration in outer water phase)/total nucleic acid concentration×100 The results are shown in Table 2.

Each structure is given as a SMILES string.

For the compound `CCCCC/C=C\C/C=C\CCCCCCCCN(CCCCCCCC/C=C\C/C=C\CCCCC)C(=O)OCCCN(C)CCN(C)C` [Example 2, 3-((2-(Dimethylamino)ethyl)(methyl)amino)propyl di((9Z,12Z)-octadeca-9,12-dien-1-yl)carbamate], the “Particle size (nm)” value in series [1] was 80.5 nm. The “Nucleic acid encapsulation rate” value in series [2] is 78%.
Taken in the same sequence, the figures for `CCCCC/C=C\C/C=C\CCCCCCCCN(CCCCCCCC/C=C\C/C=C\CCCCC)C(=O)OCCN(C)CCN1CCOCC1` [Example 5, 2-(Methyl(2-morpholinoethyl)amino)ethyl di((9Z,12Z)-octadeca-9,12-diene-1-yl)carbamate] were 73.8 nm and 78%.
Taken in the same sequence, the figures for `CCCCC/C=C\C/C=C\CCCCCCCCN(CCCCCCCC/C=C\C/C=C\CCCCC)C(=O)OCCN(CC)CCN1CCOCC1` [Example 6, 2-(Ethyl(2-morpholinoethyl)amino)ethyl di((9Z,12Z)-octadeca-9,12-dien-1-yl)carbamate] were 113.5 nm and 78%.
The corresponding values for `CCCCC/C=C\C/C=C\CCCCCCCCN(CCCCCCCC/C=C\C/C=C\CCCCC)C(=O)OCCN(C)CCCN(C)C` [Example 8, 2-((3-(Dimethylamino)propyl)(methyl)amino)ethyl di((9Z,12Z)-octadeca-9,12-dien-1-yl)carbamate] are 81.4 nm and 83%.
As for `CCCCCC/C=C\COC(=O)CCCCCCCN(CCCCCCCC(=O)OC/C=C\CCCCCC)C(=O)OCCN(C)CCN(C)C` [Example 11, (Z)-non-2-en-1-yl 2,5-dimethyl-10-(8-(((Z)-non-2-en-1-yl)oxy)-8-oxooctyl)-9-oxo-8-oxa-2,5,10-triazaoctadecan-18-oate], the “Particle size (nm)” value in series [1] came to 217.2 nm. Further, in series [2], the “Nucleic acid encapsulation rate” value is 84%.
The corresponding values for `CCCCCC/C=C/COC(=O)CCCCCCCN(CCCCCCCC(=O)OC/C=C/CCCCCC)C(=O)OCCN(C)CCN(C)C` [Example 12, (E)-non-2-en-1-yl 2,5-dimethyl-10-(8-(((E)-non-2-en-1-yl)oxy)-8-oxooctyl)-9-oxo-8-oxa-2,5,10-triazaoctadecan-18-oate] are 254.2 nm and 100%.
Taken in the same sequence, the figures for `CCCCCCCCCOC(=O)CCCCCCCN(CCCCCCCC(=O)OCCCCCCCCC)C(=O)OCCN(C)CCN(C)C` [Example 13, Nonyl 2,5-dimethyl-10-(8-(nonyloxy)-8-oxooctyl)-9-oxo-8-oxa-2,5,10-triazaoctadecan-18-oate] were 140.3 nm and 88%.
Regarding `CCCCCC/C=C\COC(=O)OCCCCCCN(CCCCCCOC(=O)OC/C=C\CCCCCC)C(=O)OCCN(C)CCN(C)C` [Example 14, 2-((2-(Dimethylamino)ethyl)(methyl)amino)ethyl bis(6-(((((Z)-non-2-en-1-yl)oxy)carbonyl)oxy)hexyl)carbamate], in series [1], the “Particle size (nm)” value is given as 219.0 nm. Besides, the “Nucleic acid encapsulation rate” value in series [2] is reported as 76%.
The corresponding values for `CCCCCCCC/C=C\CCCCCCCCN(CCCCCCCCC)C(=O)OCCN(C)CCN(C)C` [Example 15, 2-((2-(Dimethylamino)ethyl)(methyl)amino)ethyl(Z)-nonyl(octadec-9-en-1-yl)carbamate] are 122.8 nm and 83%.
The corresponding values for `CCCCC/C=C\C/C=C\CCCCCCCCN(CCCCCCCCC)C(=O)OCCN(C)CCN(C)C` [Example 16, 2-((2-(Dimethylamino)ethyl)(methyl)amino)ethyl nonyl((9Z,12Z)-octadeca-9,12-dien-1-yl)carbamate] are 113.4 nm and 90%.
Taken in the same sequence, the figures for `CCCCC/C=C\C/C=C\CCCCCCCCC(CCCCCCCC/C=C\C/C=C\CCCCC)OC(=O)OCCN(C)CCN1CCOCC1` [Example 21, 2-(Methyl(2-morpholinoethyl)amino)ethyl((6Z,9Z,28Z,31Z)-heptatriaconta-6,9,28,31-tetraen-19-yl)carbonate] were 78.0 nm and 78%.
For `CCCCC/C=C\C/C=C\CCCCCCCCC(CCCCCCCC/C=C\C/C=C\CCCCC)OC(=O)OCCN(CC)CCN1CCOCC1` [Example 22, 2-(Ethyl(2-morpholinoethyl)amino)ethyl((6Z,9Z,28Z,31Z)-heptatriaconta-6,9,28,31-tetraen-19-yl)carbonate], the “Particle size (nm)” value in series [1] is given as 69.3 nm. Besides, the “Nucleic acid encapsulation rate” value in series [2] was 69%.
Turning to `CCCCC/C=C\C/C=C\CCCCCCCCC(CCCCCCCC/C=C\C/C=C\CCCCC)OC(=O)OCCN(CCO)CCN(C)C` [Example 28], in series [1], the “Particle size (nm)” value was 76.4 nm. For the same compound, the “Nucleic acid encapsulation rate” value in series [2] was determined as 75%.
Taken in the same sequence, the figures for `CCCCC/C=C\C/C=C\CCCCCCCCC(CCCCCCCC/C=C\C/C=C\CCCCC)OC(=O)OCCN(CCN(C)C)C1CCCCC1` [Example 32, 2-(Cyclohexyl(2-(dimethylamino)ethyl)amino)ethyl((6Z,9Z,28Z,31Z)-heptatriaconta-6,9,28,31-tetraen-19-yl)carbonate] were 71.6 nm and 78%.
Taken in the same sequence, the figures for `CCCCC/C=C\C/C=C\CCCCCCCC(=O)OCC(COC(=O)CCCCCCC/C=C\C/C=C\CCCCC)OC(=O)OCCN(CC)CCN(C)C` [Example 35, 2-(((2-((2-(Dimethylamino)ethyl)(ethyl)amino)ethoxy)carbonyl)oxy)propane-1,3-diyl(9Z,9′Z,12Z,12′Z)-bis(octadeca-9,12-dienoate)] were 80.1 nm and 87%.
`CCCCC/C=C\C/C=C\CCCCCCCCC(CCCCCCCC/C=C\C/C=C\CCCCC)OC(=O)OCCN(CCCC)CCN(CC)CC` [Example 39, 2-(Butyl(2-(diethylamino)ethyl)amino)ethyl((6Z,9Z,28Z,31Z)-heptatriaconta-6,9,28,31-tetraen-19-yl)carbonate]: the “Particle size (nm)” value in series [1] is on record as 78.3 nm. Moreover, the “Nucleic acid encapsulation rate” value in series [2] is reported as 88%.
The corresponding values for `CCCCC/C=C\C/C=C\CCCCCCCCC(CCCCCCCC/C=C\C/C=C\CCCCC)OC(=O)OCCN(CCC)CCN(CC)CC` [Example 44, 2-((2-(Diethylamino)ethyl)(propyl)amino)ethyl((6Z,9Z,28Z,31Z)-heptatriaconta-6,9,28,31-tetraen-19-yl)carbonate] are 69.4 nm and 59%.
Regarding `CCCCC/C=C\C/C=C\CCCCCCCCC(CCCCCCCC/C=C\C/C=C\CCCCC)OC(=O)OCCN(CC)CCN(CCC)CCC` [Example 49, 2-((2-(Dipropylamino)ethyl)(ethyl)amino)ethyl((6Z,9Z,28Z,31Z)-heptatriaconta-6,9,28,31-tetraen-19-yl)carbonate], the “Particle size (nm)” value in series [1] stood at 74.3 nm. Moreover, the “Nucleic acid encapsulation rate” value in series [2] was 80%.
The corresponding values for `CCCCCCCCC1CC1CCCCCCCC(=O)OCCCCCCC(CCCCCCOC(=O)CCCCCCCC1CC1CCCCCCCC)OC(=O)OCCN(CC)CCN(CC)CC` (stereo not drawn) [Example 57] are 77.9 nm and 79%.
Turning to `CCCCC/C=C\C/C=C\CCCCCCCCC(CCCCCCCC/C=C\C/C=C\CCCCC)OC(=O)OCCN(CCN(C)CCC)C(C)C` [Example 63, (6Z, 9Z, 28Z, 31Z)-heptatriaconta-6,9,28,31-tetraen-19-yl(2-(isopropyl(2-(methyl(propyl)amino)ethyl)amino)ethyl)carbonate], in series [1], the “Particle size (nm)” value is on record as 65.8 nm. Further, the “Nucleic acid encapsulation rate” value in series [2] came out at 79%.
Take `CCCCC/C=C\C/C=C\CCCCCCCCC(CCCCCCCC/C=C\C/C=C\CCCCC)OC(=O)OCCN(CCN(C)CC)C(C)(C)C` [Example 79, 2-(tert-Butyl(2-(ethyl(methyl)amino)ethyl)amino)ethyl((6Z,9Z,28Z,31Z)-heptatriaconta-6,9,28,31-tetraen-19-yl)carbonate]: in series [1], the “Particle size (nm)” value is recorded as 65.5 nm. Further, the “Nucleic acid encapsulation rate” value in series [2] is given as 81%.
